Measured values: patent US12577213B2 (NINGBO COMBIREG PHARMACEUTICAL TECHNOLOGY CO., LTD., priority 2020, dated 2026)
Like-named read-outs stand apart in the source and are kept apart here.

Columns and labels:
[1] = system: A549 (non-small cell lung cancer); assay: NCI method SRB growth inhibition, A549; assay type: cell-based; conditions: Homo sapiens; A549, treated 48 hours, SRB stain
Source text: (§1) In this embodiment, the method of National Cancer Institute (NCI) was used to evaluate the anti-tumor activity of the embodiment compounds in the present disclosure. Nine representative cell lines were selected for activity evaluation, including A549 (non-small cell lung cancer), HCT116 (colon cancer), SF295 (central nervous system tumor), LOX-IMVI (melanoma), 786-0 (renal cancer), K562 (leukemia), PC-3 (prostate cancer), OVCAR-3 (ovarian cancer) and HS 578T (breast cancer).
(§2) The specific method was as follows: 60 tumor cell lines of 9 kinds of human cancers were used to evaluate the inhibitory activity of the compound in vitro. A test group, a parallel control group and a vehicle control group were set up. The parallel control group was fixed immediately before the compound was added; the cells in the test group were fixed after being treated with the compound for 48 hours; the vehicle control group was fixed after an equal volume of complete medium was added for 48 hours. Sulforhodamine B (SRB) was used to stain, and the OD value was measured at a wavelength of 515 nm. The specific calculation method was as follows: the OD value of the parallel control group was recorded as Tz, the OD value of the vehicle control group was recorded as C, and the OD value of the test group was recorded as (Ti). If Ti≥Tz, it means that the cells still grow after the drug was added, and the growth rate %=[(Ti−Tz)/(C−Tz)]×100; if Ti<Tz, it means that the cells are killed after the drug was added, and the growth rate %=[(Ti−Tz)/Tz]×100. Three parameters were used to evaluate the anti-tumor activity of compounds in this method: 50% growth inhibitory concentration (GI50): i.e. the compound concentration at [(Ti−Tz)/(C−Tz)]×100=50; complete growth inhibitory concentration (TGI): the compound concentration at Ti=Tz; the drug concentration required to kill 50% of the cells (LC50): i.e. the compound concentration at [(Ti−Tz)/Tz]×100=−50.
(§3) The inhibitory activities of the embodiment compounds on nine representative tumor cell lines were listed in detail in Table 1. Wherein, the GI50 value means “50% growth inhibition rate”, that is, the concentration of the compound to be tested when it can inhibit […] of cell growth; “ND” means not detected.

OVCAR-3 (ovarian cancer) = assay: NCI method SRB growth inhibition, OVCAR-3; assay type: cell-based; conditions: Homo sapiens; OVCAR-3, treated 48 hours, SRB stain
Source text: as §1, §2, §3

PC-3 (prostate cancer) = assay: NCI method SRB growth inhibition, PC-3; assay type: cell-based; conditions: Homo sapiens; PC-3, treated 48 hours, SRB stain
Source text: as §1, §2, §3

[2] = Liver microsomes stability; assay type: in vitro ADME, human; conditions: 1 μM compound, 1 mg/mL human liver microsomes, 1 mM NADPH; for half-life at 1 μM: read-out: T½ of HLM
Protocol: The compound to be tested with final concentration of 1 μM was incubated with 1 mg/mL of human liver microsomes and 1 mM of NADPH, and a group without NADPH was set as a negative control. The reaction mixture was quenched with methanol at five time points of 0, 5, 15, 30 and 60 min, respectively, then centrifuged at 2500 rpm for 20 min to precipitate proteins, and the resulting supernatant was analyzed by LC-MS/MS. The data was analyzed and the k value and half-life T1/2 was calculated, T1/2(min)=0.693/k.
Wherein, compounds a, b and c are active compounds disclosed in patent No. ZL201610154581.3.

HCT116 (colon cancer) = assay: NCI method SRB growth inhibition, HCT116; assay type: cell-based; conditions: Homo sapiens, HCT-116; HCT116, treated 48 hours, SRB stain
Source text: as §1, §2, §3

786-0 (renal cancer) = assay: NCI method SRB growth inhibition, 786-0; assay type: cell-based; conditions: Homo sapiens; 786-0, treated 48 hours, SRB stain
Source text: as §1, §2, §3

K562 (leukemia) = assay: NCI method SRB growth inhibition, K562; assay type: cell-based; conditions: Homo sapiens; K562, treated 48 hours, SRB stain
Source text: as §1, §2, §3

HS 578T (breast cancer) = assay: NCI method SRB growth inhibition, HS 578T; assay type: cell-based; conditions: Homo sapiens, HS578T, treated 48 hours, SRB stain
Source text: as §1, §2, §3

LOX-IMVI (melanoma) = assay: NCI method SRB growth inhibition, LOX-IMVI; assay type: cell-based; conditions: Homo sapiens, treated 48 hours, SRB stain
Source text: as §1, §2, §3

[3] = system: SF295 (central nervous system tumor); assay: NCI method SRB growth inhibition, SF295; assay type: cell-based; conditions: Homo sapiens, SF-295; SF295, treated 48 hours, SRB stain
Source text: as §1, §2, §3

SMILES	microsomal CLint at 1 μM [2] [µL/min/mg]	half-life at 1 μM ([2]; human, human liver microsomes) [h]	GI50 [1] [nM]	GI50 (OVCAR-3 (ovarian cancer)) [nM]	GI50 (PC-3 (prostate cancer)) [nM]	GI50 (HCT116 (colon cancer)) [nM]	GI50 (786-0 (renal cancer)) [nM]	GI50 (K562 (leukemia)) [nM]	GI50 (HS 578T (breast cancer)) [nM]	GI50 (LOX-IMVI (melanoma)) [nM]	GI50 [3] [nM]	half-life at 1 μM [2] [h]	microsomal CLint at 1 μM ([2]; human, human liver microsomes) [µL/min/mg]
[2H]C([2H])([2H])OC(=O)C[C@@H]1NC(=O)c2cc(Oc3cc(C)cc(C)c3)c(NC(=O)c3cc(OC)c(OC)c(OC)c3Cl)cc2NC1=O [Compound 9, (S)-2-[8-(2-chloro-3,4,5-trimethoxybenzamido)-7-(3,5-dimethylphenoxy)-2,5-dioxo-2,3,4,5-tetrahydro-1H-benzo[e][1,4]diazepin-3-yl]acetic acid trideuteromethyl ester]	5.9	1.95	23	8.6	13.1	14.8	44.8	17	40.5	13.9	15.2	–	–
[2H]C([2H])([2H])Oc1cc(C(=O)Nc2cc3c(cc2Oc2cc(C)cc(C)c2)C(=O)N[C@@H](CC(=O)N2CCC(F)(F)CC2)C(=O)N3)c(Cl)c(OC([2H])([2H])[2H])c1OC([2H])([2H])[2H] [Compound 10, (S)-2-chloro-N-[3-[2-(4,4-difluoropiperidin-1-yl)-2-oxoethyl]-7-(3,5-dimethylphenoxy)-2,5-dioxo-2,3,4,5-tetrahydro-1H-benzo[e][1,4]diazepin-8-yl]-3,4,5-tris(trideuteromethoxy)benzamide]	10.2	1.13	35.4	< 5	< 5	34.7	37	< 5	6.4	< 5	10.7	–	–
[2H]C([2H])([2H])Oc1cc(C(=O)Nc2cc3c(cc2Oc2cc(C)cc(C)c2)C(=O)N[C@@H](CC(=O)N2CCN(C)CC2)C(=O)N3)c(Br)c(OC([2H])([2H])[2H])c1OC([2H])([2H])[2H] [Compound 29, (S)-2-bromo-N-[7-(3,5-dimethylphenoxy)-3-[2-(4-methylpiperazin-1-yl)-2-oxoethyl]-2,5-dioxo-2,3,4,5-tetrahydro-1H-benzo[e][1,4]diazepin-8-yl]-3,4,5-tris(trideuteromethoxy)benzamide]	5.4	2.13	11.8	< 5	< 5	12	244	4.2	< 5	< 5	93.8	–	–
[2H]C([2H])([2H])Oc1cc(C(=O)Nc2cc3c(cc2Oc2cc(C)cc(C)c2)C(=O)N[C@@H](CC(=O)N(C)O)C(=O)N3)c(Br)c(OC([2H])([2H])[2H])c1OC([2H])([2H])[2H] [Compound 31]	–	–	< 5	< 5	< 5	17	28.1	< 5	8.6	< 5	58	0.722	16
[2H]C([2H])([2H])Oc1cc(C(=O)Nc2cc3c(cc2Oc2cc(C)cc(C)c2)C(=O)N[C@@H](CC(=O)C(C)(C)P(=O)(OC)OC)C(=O)N3)c(Br)c(OC([2H])([2H])[2H])c1OC([2H])([2H])[2H] [Compound 26, (S)-dimethyl-(4-8-(2-bromo-3,4,5-tris(trideuteromethoxy)benzoyl)-7-(3,5-dimethylphenoxy)-2,5-dioxo-2,3,4,5-tetrahydro-1H-benzo[e][1,4]diazepin-3-yl)-2-methyl-3-oxobutyl-2-yl)dimethyl phosphate]	–	–	13	6	< 5	14.2	57.4	< 5	10	6.2	42.7	3.62	3.2

Now from value to compound, other results behind:

microsomal CLint at 1 μM [2] [µL/min/mg]	half-life at 1 μM ([2]; human, human liver microsomes) [h]	SMILES	GI50 [1] [nM]	GI50 (OVCAR-3 (ovarian cancer)) [nM]	GI50 (PC-3 (prostate cancer)) [nM]	GI50 (HCT116 (colon cancer)) [nM]	GI50 (786-0 (renal cancer)) [nM]	GI50 (K562 (leukemia)) [nM]	GI50 (HS 578T (breast cancer)) [nM]	GI50 (LOX-IMVI (melanoma)) [nM]	GI50 [3] [nM]	half-life at 1 μM [2] [h]	microsomal CLint at 1 μM ([2]; human, human liver microsomes) [µL/min/mg]
9	1.28	[2H]C([2H])([2H])Oc1cc(C(=O)Nc2cc3c(cc2Oc2cc(C)cc(C)c2)C(=O)N[C@@H](CC(=O)N(C)OC([2H])([2H])[2H])C(=O)N3)c(Br)c(OC([2H])([2H])[2H])c1OC([2H])([2H])[2H] [Compound 40]	< 5	< 5	< 5	< 5	< 5	< 5	< 5	< 5	< 5	–	–
7.6	1.52	[2H]C([2H])([2H])Oc1cc(C(=O)Nc2cc3c(cc2Oc2cc(C)cc(C)c2)C(=O)N[C@@H](CC(=O)N(OC)C([2H])([2H])[2H])C(=O)N3)c(Br)c(OC([2H])([2H])[2H])c1OC([2H])([2H])[2H] [Compound 41]	< 5	< 5	< 5	< 5	< 5	< 5	< 5	< 5	< 5	–	–
7.2	1.6	[2H]C([2H])([2H])Oc1cc(C(=O)Nc2cc3c(cc2Oc2cc(C)cc(C)c2)C(=O)N[C@@H](CC(=O)N(OC([2H])([2H])[2H])C([2H])([2H])[2H])C(=O)N3)c(Cl)c(OC([2H])([2H])[2H])c1OC([2H])([2H])[2H] [Compound 38]	< 5	< 5	< 5	13	23	< 5	21	5.2	27	–	–
7.7	1.5	[2H]C([2H])([2H])Oc1cc(C(=O)Nc2cc3c(cc2Oc2cc(C)cc(C)c2)C(=O)N[C@@H](CC(=O)N(OC([2H])([2H])[2H])C([2H])([2H])[2H])C(=O)N3)c(Br)c(OC([2H])([2H])[2H])c1OC([2H])([2H])[2H] [Compound 37]	< 5	< 5	< 5	< 5	8.6	< 5	< 5	< 5	12	–	–
